Source: article PMC3224194 (European journal of pharmacology, 2011)
Where a chain is given by its changes, count along the chain named. pKi: −log10 of the molar value.

What was measured:
Experiment in all cases: competition with [3H]-mesulergine, HEK membranes
Format in all cases: binding
[1] = molecular target: T1, human 5-HT2C-INI (WT) receptor (Homo sapiens, UniProt P28335, S138A)
T1 sequence (P28335 33-458 S138A): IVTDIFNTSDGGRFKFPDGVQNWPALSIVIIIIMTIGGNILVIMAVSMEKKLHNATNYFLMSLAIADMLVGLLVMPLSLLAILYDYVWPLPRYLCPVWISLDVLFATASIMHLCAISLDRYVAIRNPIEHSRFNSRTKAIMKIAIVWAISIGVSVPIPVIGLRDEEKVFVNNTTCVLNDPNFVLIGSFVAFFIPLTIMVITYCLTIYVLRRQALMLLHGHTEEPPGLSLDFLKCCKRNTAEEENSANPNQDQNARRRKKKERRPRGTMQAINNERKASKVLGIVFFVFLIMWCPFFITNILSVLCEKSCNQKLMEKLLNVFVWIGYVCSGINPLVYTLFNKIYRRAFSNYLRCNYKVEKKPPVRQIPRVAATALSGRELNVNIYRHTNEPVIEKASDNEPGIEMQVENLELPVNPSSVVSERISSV

[2] = molecular target: T2, human 5-HT2C-INI (WT) receptor (Homo sapiens, UniProt P28335)
T2 sequence (P28335 33-458): T1 sequence (P28335 33-458 S138A) with A106S

[3] = molecular target: T3, human 5-HT2C-INI (WT) receptor (Homo sapiens, UniProt P28335, Y358A)
T3 sequence (P28335 33-458 Y358A): T1 sequence (P28335 33-458 S138A) with A106S, Y326A

Work on `NC1Cc2ccccc2C(c2ccccc2)C1` (racemic) [NH2-PAT] yielded a pKi [1] of 5.04, a pKi [2] of 5.81 and a pKi [3] of 5.87.

In the case of `NCCc1c[nH]c2ccccc12` [Tryptamine], the pKi [1] was 5.82, the pKi [2] was 7.24 and the pKi [3] was 6.53.
